Here are results for four molecules from patent publication US10143199B2, “Method of killing bedbug eggs” (Ecolab USA Inc., priority 2012, dated 2018).

What all share (type): in vivo
The subject of assay [1] is Bedbug eggs. The experiment in a line: Treating bedbug eggs with anionic compounds near neutral pH (Example 2), kill of eggs. To be noted: pH 7-8, 100° F., 5 min. As to the method:
(§1) Aqueous test compositions of each of several anionic compounds prepared and adjusted to near neutral pH of about 7-8. Bedbug eggs were then contacted with a 100° F. test composition for 5 min.

Assay [2] deals with Bedbug Eggs and Nymphs. Description: Treating bedbug eggs with anionic compounds near neutral pH (Example 2), kill of eggs and nymphs. The settings on record: pH 7-8, 100° F., 5 min. The procedure:
as §1

In assay [3] the test system is Bedbug eggs. Description: Treating bedbug eggs on a substrate with test composition at pH 9 to 10 (Example 1). The settings on record: 1% solution, pH of 9 to 10, 100° F., 5 minutes exposure. As to the method:
Bedbug eggs on a substrate were exposed to a 100° F. test composition for 5 minutes and then examined. […] Water by itself killed about 20% of the bedbug eggs. And, complete kill was accomplished by a commercial bedbug killer sold under the tradename Transport.

As to `CCCCCCCCS(=O)(=O)[O-].[Na+]` [sodium octyl sulfonate], in assay [1] (1% aqueous test composition), the “% Kill of Bedbug Eggs” value is listed as 90%. In assay [2] (1% aqueous test composition), the “% Kill of Bedbug Eggs and Nymphs” value was found to be 95%.
sodium dodecylbenzene sulfonate: the “% Kill of Bedbug Eggs” value in assay [1] (1% aqueous test composition) came out at 30%. Further, the “% Kill of Bedbug Eggs and Nymphs” value in assay [2] (1% aqueous test composition) was 30%.
Regarding `CCCCCCCCCCCCOS(=O)(=O)[O-].[Na+]` [sodium lauryl sulfate], the “kill of bedbug eggs” value in assay [3] is listed as “did not kill”. In addition, the “% Kill of Bedbug Eggs” value in assay [1] (0.1% aqueous test composition) is 70%; in assay [1] (1% aqueous test composition), 75%. Besides, the “% Kill of Bedbug Eggs and Nymphs” value in assay [2] (0.1% aqueous test composition) is 95%; in assay [2] (1% aqueous test composition), 100%.
Regarding sodium lauryl ether sulfate, the “% Kill of Bedbug Eggs” value in assay [1] (1% aqueous test composition) was determined as 35%. Further, in assay [2] (1% aqueous test composition), the “% Kill of Bedbug Eggs and Nymphs” value was 35%.
